The structures appear in SMILES notation. Structures can show the parent of a compound that is named as a salt.

The assay concerns Mycobacterium tuberculosis H37Rv. Put plainly: Mycobacterium tuberculosis H37Rv Inhibition Assay. Conditions: ATCC 25618 / H37Rv, H37Rv strain (ATCC25618), resazurin fluorescence readout. It is filed as cell-based. The protocol: The measurement of the minimum inhibitory concentration (MIC) for each tested compound was performed in 96 wells flat-bottom, polystyrene microtiter plates. Ten two-fold drug dilutions in neat DMSO starting at 400 μM were performed. Five μl of these drug solutions were added to 95 μl of Middlebrook 7H9 medium. (Lines A-H, rows 1-10 of the plate layout). Isoniazid was used as a positive control, 8 two-fold dilution of Isoniazid starting at 160 μgml^−1 was prepared and 5 μl of this control curve was added to 95 μl of Middlebrook 7H9 (Difco catalogue Ref. 271310)+ADC medium (Becton Dickinson Catalogue Ref. 211887). (Row 11, lines A-H). Five μl of neat DMSO were added to row 12 (growth and Blank controls).
The inoculum was standardised to approximately 1×10^7 cfu/ml and diluted 1 in 100 in Middlebrook 7H9+ADC medium and 0.025% Tween 80 (Sigma P4780), to produce the final inoculum of H37Rv strain (ATCC25618). One hundred μl of this inoculum was added to the entire plate but G-12 and H-12 wells (Blank controls). All plates were placed in a sealed box to prevent drying out of the peripheral wells and they were incubated at 37° C. without shaking for six days. A resazurin solution was prepared by dissolving one tablet of resazurin (Resazurin Tablets for Milk Testing; Ref 330884Y VWR International Ltd) in 30 ml sterile PBS (phosphate buffered saline). 25 μl of this solution was added to each well. Fluorescence was measured (Spectramax M5 Molecular Devices, Excitation 530 nm, Emission 590 nm) after 48 hours to determine the MIC value.
A general note: Alamar Blue is a resazurin reagent that responds to reducing activity.
The term MIC denotes the least concentration at which growth counts as inhibited. Higher therefore signals a need for much substance. `O=C1COc2ccc(CNC3CCN(CC4CCn5c(=O)ccc6ccc(F)c4c65)CC3)nc2N1` (centres unmarked) [Example 11, 10-fluoro-1-[(4-{[(3-oxo-3,4-dihydro-2H-pyrido[3,2-b][1,4]oxazin-6-yl)methyl]amino}-1-piperidinyl)methyl]-2,3-dihydro-1H,5H-pyrido[3,2,1-ij]quinolin-5-one dihydrochloride]: the MIC is at most 1.8 µg/mL. To `O=C1CSc2ccc(CNC3CCN(CC4CCn5c(=O)ccc6ccc(F)c4c65)CC3)nc2N1` (centres unmarked) [Example 10, 10-fluoro-1-[(4-{[(3-oxo-3,4-dihydro-2H-pyrido[3,2-b][1,4]thiazin-6-yl)methyl]amino}-1-piperidinyl)methyl]-2,3-dihydro-1H,5H-pyrido[3,2,1-ij]quinolin-5-one dihydrochloride] belongs at most 1.8 µg/mL. With `O=C1COc2ccc(CN[C@H]3CCN(CC4CCn5c(=O)ccc6ccc(F)c4c65)C[C@H]3O)nc2N1` (stereo partly drawn) [Example 17, 10-fluoro-1-[((3R,4S)-3-hydroxy-4-{[(3-oxo-3,4-dihydro-2H-pyrido[3,2-b][1,4]oxazin-6-yl)methyl]amino}-1-piperidinyl)methyl]-2,3-dihydro-1H,5H-pyrido[3,2,1-ij]quinolin-5-one dihydrochloride] the figure was at most 1.8 µg/mL; with `O=C1COc2ccc(CNC3CCN(CC4CCN5C(=O)COc6ccc(F)c4c65)CC3)nc2N1` (centres unmarked) [Example 37, 8-Fluoro-7-[(4-{[(3-oxo-3,4-dihydro-2H-pyrido[3,2-b][1,4]oxazin-6-yl)methyl]amino}-1-piperidinyl)methyl]-6,7-dihydro-5H-[1,4]oxazino [2,3,4-ij]quinolin-3(2H)-one dihydrochloride], at most 1.8 µg/mL.

`O=C1COc2ccc(CNC3CCN(CC4CCn5c(=O)sc6ccc(F)c4c65)CC3)nc2N1` (centres unmarked) [Example 32, 7-Fluoro-6-[(4-{[(3-oxo-3,4-dihydro-2H-pyrido[3,2-b][1,4]oxazin-6-yl)methyl]amino}-1-piperidinyl)methyl]-5,6-dihydro-4H-[1,3]thiazolo[5,4,3-ij]quinolin-2-one dihydrochloride] showed a minimal inhibitory concentration (MIC) of at most 1.8 µg/mL.

Values taken from patent US20100056502A1, “COMPOUNDS” (GLAXO GROUP LIMITED, priority 2007, published 2010).
